Reference: patent publication US11118204B2, “Switchable ionic liquids for biomass pretreatment and enzymatic hydrolysis” (National Technology & Engineering Solutions of Sandia, LLC, priority 2014, dated 2021)
Several values for one entry are separate records, joined by “and”; a condition that tells them apart may be missing. Identical values can stand only once. One block for each molecule: values may come before it.

Key:
[1] = tested on: Ctec2; test: Ctec2 stability in ionic liquids (residual activity, T50^30); type: biochemical; conditions: for T50^30 (temperature at which enzyme activity is reduced by 50% following 30-minute pre-incubation): Ctec2 pre-incubated 38-80° C. in IL at 5-20%, substrates CMC, PNP-cellobiose, PNP-glucopyranoside, FIG. 1
Experimental: Enzyme stability was monitored by residual activity measurements. Ctec2 was diluted 200-fold into nine ionic liquid or buffer solutions at concentrations from 1-20 wt %. Each enzyme solution was then divided into 18 wells in a thin-walled PCR plate and incubated in thermal […] (Applied Biosystems, Veriti) at temperatures from 38-80° C. for 30 minutes. […] CMC reaction end-points were analyzed by DNS assay to detect reducing sugars. The end-points of the paranitrophenol reactions were measured by absorbance at 405 nm. […] Error was estimated by replication of both the incubation and activity measurement steps. Some solution conditions produced clearly bi-modal inactivation curves; in these cases the larger of the two transitions was reported. […] To capture the stability differences for several different enzyme classes in the multicomponent commercial enzyme mixture, the T50^30 was measured on three different representative substrates: carboxymethylcellulose (CMC), 4-Nitrophenyl β-D-glucopyranoside (PNP-glucopyranoside) and 4-Nitrophenyl β-D-cellobiose (PNP-cellobiose). […] In FIG. 1, data for acetate-based ionic liquids are shown in the left-hand panels: [Em][Ac] (open circle, solid line); [Ch][Ac] (closed circle, solid line); [Na][Ac], pH 5.2 at 25° C. (closed circle, dashed line). Data for glutamic acid-based ionic liquids are shown in the center panels: […] [Ch]2[Glu] (closed triangle, solid line); […] (open circle, dashed line). Data for succinic acid-based ionic liquids are shown in the right-hand panels: […] [Na][Sc], pH 5.2 at 25° C. (closed square, dashed line); […]

[2] = Switchgrass pretreatment in ionic liquid and enzymatic hydrolysis (sugar conversion); conditions: for pretreatment efficiency on dilution of the ionic liquid: 120° C., 3 hrs, FIG. 2B; for biomass pretreatment effectiveness (sugar conversion): pretreatment in neat ionic liquid at 90 or 120° C., hydrolysis in 50 mM sodium succinate pH 5.2, FIG. 2A
Experimental: Putnam Switchgrass (20 mesh—2 mm particle size) was used as the biomass for all experiments. Samples used to determine the pretreatment and dilution efficiency were washed free of ionic liquid with de-ionized water, and re-suspended in 50 mM sodium succinate buffer at pH 5.2. All enzyme hydrolysis reactions were performed with shaking at 50° C. and 20 mg/g 9:1 Ctec2:Htec, unless otherwise specified. Small-scale, one-pot reactions were performed in 2 ml screw-cap vials in heating blocks without mixing with 100 mg biomass at the specified ionic liquid concentration and biomass loading. Reactions were then acidified with 1 eq. of the free acid in the same vial and transferred to shaker incubators for the enzymatic hydrolysis. Larger scale one-pot reactions were performed in glass pressure tubes (Ace Glass, USA) with 2 g or 4 g biomass (Table 1). Liberated glucose and xylose were quantified with an Agilent HPLC using a Bio-Rad Aminex […] column with a 4 mM sulfuric acid mobile phase.
Data for pretreatment at 90° C. and 120° C. is shown using white bars and black bars, respectively. […] (white bars), and dilution of the ionic liquid to 25% with water.
For the data in FIG. 2C, samples were pretreated at 90° C. or 120° C., with various % IL in the liquid fraction and different wt % biomass loadings. All samples were then hydrolyzed at 25% IL concentration with 9:1 Ctec2:Htec at 20 mg/g biomass. White bars, 90° C., 16 hrs; gray bars, 120° C., 3 hrs; black bars, 120° C., 16 hrs.
In FIG. 3A and FIG. 3B, the circles represent data obtained using 10 wt % ionic liquid and the squares represent data obtained using 25 wt % ionic liquid.

[3] = ionic liquid solution
[4] = corn stover, 25 wt % ionic liquid
[5] = [Em][Ac] (20%) acidified with acetic acid to pH ~5

solution pH [3]: ~7
Molecule: C[N+](C)(C)CCO.C[N+](C)(C)CCO.O=C([O-])CCC(=O)[O-] [[Ch]2[Sc], (choline)2 succinate]
pretreatment efficiency on dilution of the ionic liquid [2]: monotonic decrease in efficiency
sugar release relative to [Ch][Glu] ([2]; pretreatment at 120° C.): twice as much sugar
biomass pretreatment effectiveness (sugar conversion) [2]: marked improvement

stability of the commercial enzyme mixture on CMC [1, 5]: slightly
stability of the commercial enzyme mixture on the para-nitrophenol substrates [1, 5]: decreased significantly
Molecule: CC(=O)[O-].CCn1cc[n+](C)c1 [[Em][Ac], 1-ethyl-3-methylimidazolium acetate]

T50^30 (temperature at which enzyme activity is reduced by 50% following 30-minute pre-incubation) [1]: similarly low
solution pH [3]: ~14 and ~12
Molecule: Choline lysinate [[Ch][Lys], reference compound]

The next lines start with the molecule.

Molecule: C[N+](C)(C)CCO.C[N+](C)(C)CCO.N[C@@H](CCC(=O)[O-])C(=O)[O-] [[Ch]2[Glu], (choline)2 glutamate]
T50^30 (temperature at which enzyme activity is reduced by 50% following 30-minute pre-incubation) [1]: lowest
CTec2 activity ([1]; at the lowest ionic liquid concentrations): very low
performance (glucose yield) relative to the neat ionic liquid ([2]; 25% solution, pretreatment 120° C., 16 hours, one-pot): ~90%
pretreatment efficiency on dilution of the ionic liquid [2]: consistently high pretreatment efficiency
biomass pretreatment effectiveness (sugar conversion) [2]: marked improvement
solution pH [3]: 10-11
glucose yield [4]: ~95%

Molecule: C[N+](C)(C)CCO.C[N+](C)(C)CCO.O=C([O-])C(=O)[O-] [[Ch]2[oxalic acid], reference compound]
Glucose conversion ([2]; ionic liquid used neat): 48%
glucose conversion above hot water pretreatment ([2]; ionic liquid used neat): ~15%

Molecule: Choline succinate [[Ch][Sc]]
biomass pretreatment effectiveness (sugar conversion) [2]: poorly

Molecule: choline glutamate [[Ch][Glu]]
Glucose conversion ([2]; 10 wt % IL, 10% switchgrass, pretreatment at 120° C. with [Ch]2[Glu], one-pot hydrolysis with CTec2): 91%
Glucose conversion ([2]; 25 wt % IL, 10% switchgrass, pretreatment at 120° C. with [Ch]2[Glu], one-pot hydrolysis with CTec2): 82%
biomass pretreatment effectiveness (sugar conversion) [2]: poorly
